Test results reported in the NIST ThermoML archive (doi:10.1016/j.fluid.2018.05.018).
± gives the expanded uncertainty stated by the source.

Conditions: Crystal; visual observation

Normal melting temperature: 134 ± 4 °C
Compound: CCOC(=O)N1CCC(=C2c3ccc(Cl)cc3CCc3cccnc32)CC1 [claritine]
